Measurements from US7229621B2, “Method to enhance the immunogenicity of an antigen” (Torrey Pines Institute for Molecular Studies, priority 1998, dated 2007).

Legend:
[1] = system: Langerhans cells (immature dendritic cells); experiment: FITC screening assay: Langerhans/dendritic cell migration to draining inguinal lymph node after topical FITC in acetone plus migration inducer; format: in vivo, C57BL/6 mice; settings: for Amt. Antigen/DC (mean fluorescence intensity of the dendritic cells) / Total DC (FITC+ plus FITC- dendritic cells per lymph node) / Antigen^+ DC (FITC+ MHC class II^Hi cells per lymph node): FITC 5 mg/ml in 50:50 acetone and test agent; for Amt. Antigen/DC (mean fluorescence intensity of the dendritic cells) / Total DC (FITC+ plus FITC- dendritic cells per lymph node): 48 hrs later; for Antigen^+ DC (FITC+ MHC class II^Hi cells per lymph node): inguinal lymph nodes 48 hrs later; for effect on FITC+ and total dendritic cell migration into the lymph node: topical FITC in acetone plus agent on shaved abdominal skin, 2 days after treatment (FIG. 1)
Source text: Fluorescein isothiocyanate (FITC) has been used extensively by the inventor and others, to characterize Langerhans cell migration. FITC is a small (389 Da) non-peptide, largely lipophilic molecule, capable of crossing the stratum corneum. The antigenicity of FITC is due to the reactivity of its isothiocyanate group (—N═C═S) with free amino groups, permitting it to be covalently bound to proteins and/or peptides. C57BL/6 mice received the following treatments: 1) none; 2) shaving of the abdominal skin only; or shaving of the abdominal skin followed by either 3) topical administration of FITC in acetone; 4) topical administration of FITC in acetone and olive oil; 5) topical administration of FITC in acetone and DMSO diluted in phosphate buffered saline (PBS); or 6) topical administration of FITC in acetone and dibutyl phthalate. The draining inguinal lymph nodes were then examined for immigrant dendritic cells by immunofluorescent flow cytometry each day thereafter. Migratory Langerhans cells were identified by the presence of FITC and co-expression of high MHC class II molecules or by co-expression of the DEC 205 ligand for the monoclonal antibody, NLDC-145. Dendritic cell residents of the lymph nodes could be differentiated by their high expression of MHC class II molecules but lack of FITC, or by their lack of FITC but co-expression of the ligand for the dendritic cell-specific monoclonal antibody, 33D1. The uptake of FITC and the Langerhans cell response to migratory signals were observable in the draining lymph node as early as six hours after topical administration. However, 48–72 hours was required for maximal immigration of FITC-bearing Langerhans cells into the lymph node. FIG. 1 illustrates the effect of various treatment regimens on the total and FITC+ dendritic cells 2 days after treatment. […] Thus, dibutyl phthalate was a very potent migration inducer.
Compounds which are useful as inducers of immature dendritic cell migration may be screened using the standard FITC methods described for the data presented in FIGS. 1—3. C57BL6 mice are shaved on their abdomens and painted with 100–200 μl of the test solution, containing 5 mg/ml FITC in a 50/50 (v/v) mixture of acetone and the migration inducer (e.g. dibutyl phthalate). After 2 days, the draining inguinal lymph nodes are removed and the total number of dendritic cells (both FITC+ and FITC−) is determined by flow cytometry and MHC class II immunofluorescence or other markers specific for dendritic cells.
The antigen employed was FITC and the procedure was identical to that used for the experiments depicted in FIG. 1. Namely, FITC at 5 mg/ml was dissolved in a 50:50 solution of acetone and the test agents for migration induction. The test agents used in this experiment were: dibutylfumarate (Agent #1); diisooctylmaleate (Agent #2); and dibutyl-D-tartarate (Agent #3). The inguinal lymph nodes were examined 48 hrs later for the presence of FITC+ and FITC-dendritic cells as detailed previously.
The antigen used was FITC, which was applied topically to the shaved abdominal skin of C57BL/6 mice at 5 mg/ml in a 50:50 solution of dibutyl phthalate and acetone. Each of the applications was identical, with half of the mice in each group receiving the first application only (none) and half receiving the first application followed by a second application at the specified interval (14 days or 21 days) after the first application. The inguinal lymph node cells were examined by flow cytometry for FITC+ dendritic cells, as detailed previously, 48 hrs after each treatment.

[2] = system: E.G7-OVA tumor cells; experiment: E.G7-OVA tumor growth after immunization with tumor antigen and migration inducer; format: in vivo, C57BL/6 mice; settings: 50 μl of 1.25 mM OVA in HBSS injected, DBP in acetone topically an hour later; tumor inoculation one month later (FIG. 12)
Source text: The tumor cell, E.G7-OVA, is the C57BL/6 EL4 thymoma transfected with the complete gene for chicken ovalbumin (OVA). The transfected cell line expresses OVA protein, which is also processed naturally by E.G7-OVA cells into an eight amino acid peptide, OVA257-264, with the sequence […]. […] Based on the positive results using FITC, the inventors followed a similar protocol in an attempt to induce immunity to the E.G7-OVA tumor by topical administration of the well-characterized, synthetic […] tumor-associated peptide.
C57BL/6 mice were treated as follows: 1) shaving alone; 2) topical administration of acetone and dibutyl phthalate; 3) topical administration of […] (240 μg/ml) in DMSO diluted in PBS, followed in 5 hours by acetone and dibutyl phthalate; and 4) topical administration of […] (240 μg/ml) in acetone and dibutyl phthalate. All mice were subsequently injected subcutaneously with 5×10^5 E.G7-OVA cells (5-times the minimal tumorogenic dose). Tumor-specific immunity was monitored by measuring the size of the developing tumor.
The mucous membranes lack the tough barrier posed by the stratum corneum of the skin. […] The EL4 parent tumor cell line, lacking chicken ovalbumin, was used as a negative control; no immunity against the EL4 tumor cells was seen. Thus, the inventors' hypothesis regarding penetration of the stratum corneum was confirmed; the […] peptide was not effectively reaching the immature dendritic cells, known as Langerhans cells, underlying the stratum corneum.
To enhance the effectiveness of cutaneous topical administration of peptide, […] was dissolved in DMSO and applied to the skin without further dilution. Dibutyl phthalate in a 50:50 mixture with acetone was applied to the same site 5 hr later. All mice were subsequently injected subcutaneously with 5×10^5 E.G7-OVA cells. The results shown in FIG. 6 indicate that the peptide in concentrated DMSO was apparently able to traverse the stratum corneum, effectively gaining access to the epidermal Langerhans cells. […] Thus, the tumor-specific peptide, […], in concentrated DMSO, penetrated the stratum corneum in sufficient concentration to be incorporated into the MHC class I molecule K^b on epidermal Langerhans cells, and in the presence of the migration inducer, dibutyl phthalate, was effectively presented to CD8+ CTLs in the draining lymph nodes.
To confirm the immunogenicity of the disclosed treatment, groups of 10 C57BL/6 mice were injected with 50 μl of 1.25 mM OVA protein in HBSS, with HBSS alone, or with nothing. This was followed an hour later by topical application of DBP in acetone or with nothing. One month later, the mice were inoculated subcutaneously with 5×10^5 EL4 tumor cells or with 5×10^5 E.G7-OVA tumor cells and subsequent tumor growth was measured.

[3] = system: dendritic cells in draining lymph node; experiment: Antigen-bearing dendritic cells in lymph nodes after injection of soluble protein or peptide with or without topical migration inducer; format: in vivo, mice
Procedure: The injections were followed 2 hours later by topical application of dibutyl phthalate and acetone to the abdominal skin. The antigen-bearing dendritic cells that had migrated to the draining lymph node two days later were analyzed as described above and are shown in the upper right quadrant of each dot plot.
This was followed 2 hrs later by: A) no further treatment, or B) topical application of dibutyl phthalate and acetone to the abdominal skin. The antigen-bearing dendritic cells that had migrated to the draining lymph node two days later are shown in the upper right quadrant of each dot plot.
As stated previously, whether mature antigen-bearing dendritic cells will be encountered by and activate naive T cells in the lymph node is likely to depend not only on the number of antigen-bearing dendritic cells that enter the node, but also on the density of MHC:peptide complexes expressed on their membranes.

[4] = system: dendritic cells in draining lymph node; experiment: Antigen-bearing dendritic cells in lymph node after aqueous antigen applied to skin with DBP and acetone; format: in vivo; settings: aqueous solution applied to the skin with topical DBP and acetone (data not shown)
Source text: Similarly, when an aqueous solution of a […] peptide or OVA protein antigen was applied to the skin along with topical application of the migration inducer, DBP and acetone, no detectable antigen-bearing (i.e., K^b:[…] positive) dendritic cells appeared in the draining lymph node (data not shown).

[5] = 1st treatment day 1, 2nd none, assay day 16
[6] = 1st treatment day 1, 2nd none, assay day 23
[7] = 1st treatment day 1, 2nd treatment day 14, assay day 16
[8] = 1st treatment day 1, 2nd treatment day 21, assay day 23
[9] = FITC 5 mg/ml in 50:50 dibutyl phthalate and acetone, 1st treatment day 1, 2nd none, assay day 2
[10] = 20 μl of 0.5 mM in HBSS injected, dibutyl phthalate and acetone 2 hours later, two days later

## CCCCOC(=O)[C@@H](O)[C@H](O)C(=O)OCCCC [DBT, dibutyl-D-tartarate]
[1]
  Amt. Antigen/DC (mean fluorescence intensity of the dendritic cells): 364 arbitrary units
  Total DC (FITC+ plus FITC- dendritic cells per lymph node): 29,050 cells per lymph node
  Antigen^+ DC (FITC+ MHC class II^Hi cells per lymph node): 14,175 cells per lymph node

## CC(C)CCCCCOC(=O)/C=C\C(=O)OCCCCCC(C)C [Test Agent #2, diisooctylmaleate]
[1]
  Amt. Antigen/DC (mean fluorescence intensity of the dendritic cells): 1032 arbitrary units
  Total DC (FITC+ plus FITC- dendritic cells per lymph node): 7,927 cells per lymph node
  Antigen^+ DC (FITC+ MHC class II^Hi cells per lymph node): 5,340 cells per lymph node

## CCCCOC(=O)/C=C/C(=O)OCCCC [Test Agent #1, dibutylfumarate]
[1]
  Amt. Antigen/DC (mean fluorescence intensity of the dendritic cells): 994 arbitrary units
  Total DC (FITC+ plus FITC- dendritic cells per lymph node): 10,088 cells per lymph node
  Antigen^+ DC (FITC+ MHC class II^Hi cells per lymph node): 4,242 cells per lymph node

## CCCCOC(=O)c1ccccc1C(=O)OCCCC [dibutyl phthalate]
[1]; [5]
  Antigen-bearing Dendritic Cells/Node: 1,776
  Cells per Lymph Node: 4.52 × 10^6
[1]; [6]
  Antigen-bearing Dendritic Cells/Node: 0
  Cells per Lymph Node: 3.87 × 10^6
[1]; [7]
  Antigen-bearing Dendritic Cells/Node: 99,840
  Cells per Lymph Node: 1.28 × 10^7
[1]; [8]
  Antigen-bearing Dendritic Cells/Node: 49,203
  Cells per Lymph Node: 6.93 × 10^6
[1]; [9]
  Antigen-bearing Dendritic Cells/Node: 64,220
  Cells per Lymph Node: 6.76 × 10^6
[1]; by 12 hours after FITC in acetone and dibutyl phthalate (FIG. 2)
  FITC+ Langerhans cells present in the lymph node: High numbers
[1]; five days after topical FITC in acetone and dibutyl phthalate (FIG. 3)
  increase of lymph node cell population over baseline levels: approximately 7.2 fold
[1]
  effect on FITC+ and total dendritic cell migration into the lymph node: striking effect

## C[S+](C)[O-] [DMSO, dimethylsulfoxide]
[1]
  effect on FITC+ and total dendritic cell migration into the lymph node: no enhancement

B1: OVA: Chicken ovalbumin, a 40 kDa protein used as prototypic experimental antigen (protein, UniProt P01012 2-386, looked up)
Ovalbumin: GSIGAASMEFCFDVFKELKVHHANENIFYCPIAIMSALAMVYLGAKDSTRTQINKVVRFDKLPGFGDSIEAQCGTSVNVHSSLRDILNQITKPNDVYSFSLASRLYAEERYPILPEYLQCVKELYRGGLEPINFQTAADQARELINSWVESQTNGIIRNVLQPSSVDSQTAMVLVNAIVFKGLWEKAFKDEDTQAMPFRVTEQESKPVQMMYQIGLFRVASMASEKMKILELPFASGTMSMLVLLPDEVSGLEQLESIINFEKLTEWTSSNVMEERKIKVYLPRMKMEEKYNLTSVLMAMGITDVFSSSANLSGISSAESLKISQAVHAAHAEINEAGREVVGSAEAGVDAASVSEEFRADHPFLFCIKHIATNAVLFFGRCVSP
[2]
  tumor protection against E.G7-OVA: tumor protection
[3]; 20 μl of 0.5 mM in HBSS injected at two sites in abdominal skin, dibutyl phthalate and acetone topically 2 hours later, two days later
  Total Cells per Lymph Node: 8.8 × 10^6
[3]; [10]
  Dendritic Cells per Lymph Node: 137,456
  K^b:SIINFEKL^+ DC per LymphNode: 61,424
[3]; K^b:SIINFEKL+ DC versus HBSS injection
  Enhancement: 31×
[3]; injection followed by topical induction of migration, two days later
  increase in the number of antigen-bearing dendritic cells in the draining lymph nodes: 31 fold
[4]
  antigen-bearing (K^b:SIINFEKL positive) dendritic cells in the draining lymph node: no detectable
